Earlier results in US20220016128A1, “METHODS, SYSTEM, AND KIT FOR MONITORING, DIAGNOSING, AND TREATING IMPULSIVE AGGRESSION” (Supernus Pharmaceuticals, Inc., priority 2016, published 2022).

Experiments:
[1] = oral dose
[2] = acidic to slightly acidic media versus neutral to slightly alkaline pH (physiologic pH range of the gastro-intestinal tract)

CCc1c(C)[nH]c2c1C(=O)C(CN1CCOCC1)CC2 (centres unmarked) [molindone, 3-Ethyl-6,7-dihydro-2-methyl-5-(morpholinomethyl)indol-4(5H)-one]
plasma elimination half-life [1]: about 2 hours | solubility [2]: greater solubility in acidic to slightly acidic media than in neutral to slightly alkaline pH values
